# Measurements: patent US8354403B2, “Pyrrolidine derived beta 3 adrenergic receptor agonists” (Merck Sharp & Dohme Corp., priority 2009, dated 2013)
# Biological target: T1, human β3 adrenergic receptor (Homo sapiens, UniProt P13945)
# T1 construct: expressed in transfected cells; host or cells: Chinese hamster ovary (CHO) cells, stably transfected
# Test: Beta-3 agonist in vitro functional assay: cAMP production (LANCE TR-FRET) in CHO cells stably transfected with the cloned β3 receptor
# Type: cell-based
# Details: Table 4; cAMP, CHO cells; read-out: Human β3 agonist functional activity
# Summary of the method: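 CHO cells stably expressing the cloned receptor, in HEPES-buffered HBSS with BSA and 0.6 mM IBMX, 6,000 cells/well, exposed to compound for 30 min at RT. cAMP read by LANCE TR-FRET against a cAMP standard curve. Isoproterenol defines maximal stimulation.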
# T1 sequence (P13945 whole entry): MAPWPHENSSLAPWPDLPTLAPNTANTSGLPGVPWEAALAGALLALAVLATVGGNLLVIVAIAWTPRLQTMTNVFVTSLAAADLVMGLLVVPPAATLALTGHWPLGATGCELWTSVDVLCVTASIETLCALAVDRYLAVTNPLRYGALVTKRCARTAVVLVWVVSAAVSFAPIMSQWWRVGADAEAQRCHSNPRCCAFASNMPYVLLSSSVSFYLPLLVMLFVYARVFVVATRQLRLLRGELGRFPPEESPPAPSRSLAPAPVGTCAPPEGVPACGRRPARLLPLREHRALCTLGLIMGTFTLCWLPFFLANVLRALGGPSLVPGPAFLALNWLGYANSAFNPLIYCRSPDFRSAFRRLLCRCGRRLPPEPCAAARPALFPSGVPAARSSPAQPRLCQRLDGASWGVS
row,EC50,Compound
1,1 to 9.9 nM,O=C(c1ccc(C[C@@H]2CC[C@H]([C@H](O)c3cccnc3)N2)cc1)N1CCC2c3ccccc3OC2C1 (stereo partly shown) [Example 57]
2,10 to 99.9 nM,CC1(C)CC2(CCCN(C(=O)c3ccc(C[C@@H]4CC[C@H]([C@H](O)c5ccccc5)N4)cc3)C2)C(=O)O1 (stereo partly shown) [Example 41]
3,100 to 999 nM,CCOC(=O)C1CCN(C(=O)c2ccc(C[C@@H]3CC[C@H]([C@H](O)c4ccccc4)N3)cc2)C1 (stereo partly shown) [Example 6]
4,100 to 999 nM,O=C(c1ccc(C[C@@H]2CC[C@H]([C@H](O)c3ccccc3)N2)cc1)N1CC2CN(Cc3ccccn3)CC2C1 (stereo partly shown) [Example 17]
5,10 to 99.9 nM,O=C(OCc1ccccc1)C1CCCN(C(=O)c2ccc(C[C@@H]3CC[C@H]([C@H](O)c4ccccc4)N3)cc2)C1 (stereo partly shown) [Example 32]
6,100 to 999 nM,CO[C@@H]1CCN(C(=O)c2ccc(C[C@@H]3CC[C@H]([C@H](O)c4ccccc4)N3)cc2)C1 [Example 7]
7,10 to 99.9 nM,COc1ccc2c(c1)C(=O)CC1(CCCN(C(=O)c3ccc(C[C@@H]4CC[C@H]([C@H](O)c5ccccc5)N4)cc3)C1)O2 (stereo partly shown) [Example 43]

# Same assay, conditions: Table 5; cAMP, CHO cells; read-out: Human β3 agonist functional activity
row,EC50,Compound
1,10 to 99.9 nM,O=C(c1ccc(C[C@@H]2CC[C@H]([C@H](O)c3ccccc3)N2)cc1)N1CCC(n2cc(-c3ccccc3)[nH]c2=O)CC1 [Example 84]
2,10 to 99.9 nM,O=C(c1ccc(C[C@@H]2CC[C@H]([C@H](O)c3cccnc3)N2)cc1)N1CCC(S(=O)(=O)c2ccccc2F)CC1 [Example 133]
3,10 to 99.9 nM,O=C(c1ccc(C[C@@H]2CC[C@H]([C@H](O)c3ccccc3)N2)cc1)N1CCC(S(=O)(=O)c2ccc(F)cc2F)CC1 [Example 139]
4,1 to 9.9 nM,O=C(c1ccc(C[C@@H]2CC[C@H]([C@H](O)c3ccccc3)N2)cc1)N1CCC(n2ncnn2)CC1 [Example 102]
5,100 to 999 nM,O=C(c1ccc(C[C@@H]2CC[C@H]([C@H](O)c3ccccc3)N2)cc1)N1CCC(c2nc(-c3cnccn3)no2)CC1 [Example 83]
6,10 to 99.9 nM,CS(=O)(=O)C1CCN(C(=O)c2ccc(C[C@@H]3CC[C@H]([C@H](O)c4ccccc4)N3)cc2)CC1 [Example 122]
7,1 to 9.9 nM,O=C(c1ccc(C[C@@H]2CC[C@H]([C@H](O)c3ccccc3)N2)cc1)N1CCC(S(=O)(=O)c2ccccc2F)CC1 [Example 132]
8,100 to 999 nM,CS(=O)(=O)C1CCN(C(=O)c2ccc(C[C@@H]3CC[C@H]([C@H](O)c4cccnc4)N3)cc2)CC1 [Example 123]
9,1 to 9.9 nM,O=C(c1ncc(-c2cccc(F)n2)o1)C1CCN(C(=O)c2ccc(C[C@@H]3CC[C@H]([C@H](O)c4ccccc4)N3)cc2)CC1 [Example 121]
10,10 to 99.9 nM,O=C(OCc1ccccc1)C1CCN(C(=O)c2ccc(C[C@@H]3CC[C@H]([C@H](O)c4ccccc4)N3)cc2)CC1 [Example 119]
11,10 to 99.9 nM,O=C(c1ccc(C[C@@H]2CC[C@H]([C@H](O)c3ccccc3)N2)cc1)N1CCC(n2cncn2)CC1 [Example 92]
12,10 to 99.9 nM,O=C(c1ccc(C[C@@H]2CC[C@H]([C@H](O)c3ccccc3)N2)cc1)N1CCC(N2C(=O)NC3CCCCC32)CC1 (stereo partly shown) [Example 76]
13,1 to 9.9 nM,O=C(c1ccc(C[C@@H]2CC[C@H]([C@H](O)c3ccccc3)N2)cc1)N1CCC(S(=O)(=O)c2cccc(F)c2)CC1 [Example 130]
14,100 to 999 nM,O=C(c1ccc(C[C@@H]2CC[C@H]([C@H](O)c3ccccc3)N2)cc1)N1CCC(c2nc(-c3cccnc3)no2)CC1 [Example 82]
15,1 to 9.9 nM,CCS(=O)(=O)C1CCN(C(=O)c2ccc(C[C@@H]3CC[C@H]([C@H](O)c4ccccc4)N3)cc2)CC1 [Example 124]

# Same assay, conditions: Table 8; Beta-3 agonist in vitro functional assay; read-out: Human β3 agonist functional activity
row,EC50,Compound
1,100 to 999 nM,O=C(c1ccc(C[C@@H]2CC[C@H]([C@H](O)c3ccccc3)N2)cc1)N1CCC2(CCCN2)CC1 [Example 305]
2,1 to 9.9 nM,O=C(c1ccc(C[C@@H]2CC[C@H]([C@H](O)c3ccccc3)N2)cc1)N1CCC2(C=Cc3ccccc3S2(=O)=O)CC1 [Example 337]
3,100 to 999 nM,O=C(c1ccc(C[C@@H]2CC[C@H]([C@H](O)c3ccccc3)N2)cc1)N1CCC2(CCCNC2=O)CC1 [Example 256]
4,100 to 999 nM,CC1(C)CC2(CCN(C(=O)c3ccc(C[C@@H]4CC[C@H]([C@H](O)c5ccc[n+]([O-])c5)N4)cc3)CC2)C(=O)O1 [Example 295]
5,10 to 99.9 nM,O=C(c1ccc(CC2CCC(C(O)c3ccccc3)N2)cc1)N1CCC2(CCCC2=NO)CC1 (stereo not shown) [Example 317]
6,< 1 nM,O=C(c1ccc(C[C@@H]2CC[C@H]([C@H](O)c3ccccc3)N2)cc1)N1CCC2(CC1)C(=O)NCC2c1cccc(C(F)(F)F)c1 (stereo partly shown) [Example 264]
7,1 to 9.9 nM,CC1(C)CC2(CCN(C(=O)c3ccc(C[C@@H]4CC[C@H]([C@H](O)c5ccccc5)N4)cc3)CC2)C(=O)O1 [Example 293]
8,10 to 99.9 nM,CC1(C)CC2(CCN(C(=O)c3ccc(C[C@@H]4CC[C@H]([C@H](O)c5ccccc5)N4)cc3)CC2)OC1=O [Example 279]
9,10 to 99.9 nM,O=C(c1ccc(C[C@@H]2CC[C@H]([C@H](O)c3ccccc3)N2)cc1)N1CCC2(CC1)OC(C1CC1)c1ccccc12 (stereo partly shown) [Example 308]

# Same assay, conditions: Table 9; Beta-3 agonist in vitro functional assay; read-out: Human β3 agonist functional activity
row,EC50,Compound
1,10 to 99.9 nM,O=C(c1ccc(C[C@@H]2CC[C@H]([C@H](O)c3ccccc3)N2)cc1)N1CCN(Cc2ncco2)CC1 [Example 392]
2,100 to 999 nM,CN(C)C(=O)CN1CCN(C(=O)c2ccc(C[C@@H]3CC[C@H]([C@H](O)c4ccccc4)N3)cc2)CC1 [Example 389]
3,10 to 99.9 nM,O=C(c1ccc(C[C@@H]2CC[C@H]([C@H](O)c3ccccc3)N2)cc1)N1CCN(Cc2nc3ccccc3s2)CC1 [Example 404]
4,100 to 999 nM,O=C(c1ccc(C[C@@H]2CC[C@H]([C@H](O)c3ccccc3)N2)cc1)N1CCN(c2ccc3c(c2)OCCO3)CC1 [Example 354]
5,100 to 999 nM,NC(=O)CN1CCN(C(=O)c2ccc(C[C@@H]3CC[C@H]([C@H](O)c4ccccc4)N3)cc2)CC1 [Example 388]

# Same assay, conditions: Table 10; Beta-3 agonist in vitro functional assay; read-out: Human β3 agonist functional activity
row,EC50,Compound
1,100 to 999 nM,CC(C(=O)NCc1nnc2n1CCC2)N1CCN(C(=O)c2ccc(C[C@@H]3CC[C@H]([C@H](O)c4ccccc4)N3)cc2)CC1 (stereo partly shown) [Example 466]
2,10 to 99.9 nM,CC[C@@H](C)NC(=O)C(C)N1CCN(C(=O)c2ccc(C[C@@H]3CC[C@H]([C@H](O)c4ccccc4)N3)cc2)CC1 (stereo partly shown) [Example 440]
3,10 to 99.9 nM,CC(C)C1CC(CNC(=O)C(C)N2CCN(C(=O)c3ccc(C[C@@H]4CC[C@H]([C@H](O)c5ccccc5)N4)cc3)CC2)C1 (stereo partly shown) [Example 454]
4,100 to 999 nM,CC(C(=O)N1CCCCCC1)N1CCN(C(=O)c2ccc(C[C@@H]3CC[C@H]([C@H](O)c4ccccc4)N3)cc2)CC1 (stereo partly shown) [Example 511]
5,10 to 99.9 nM,CC(C(=O)NC1CCS(=O)(=O)CC1)N1CCN(C(=O)c2ccc(C[C@@H]3CC[C@H]([C@H](O)c4ccccc4)N3)cc2)CC1 (stereo partly shown) [Example 469]
6,10 to 99.9 nM,CC(C(=O)NC(C1CC1)C1CC1)N1CCN(C(=O)c2ccc(C[C@@H]3CC[C@H]([C@H](O)c4ccccc4)N3)cc2)CC1 (stereo partly shown) [Example 451]
7,10 to 99.9 nM,Cc1nonc1CN(C)C(=O)C(C)N1CCN(C(=O)c2ccc(C[C@@H]3CC[C@H]([C@H](O)c4ccccc4)N3)cc2)CC1 (stereo partly shown) [Example 512]
8,10 to 99.9 nM,CC(C(=O)NCc1ncco1)N1CCN(C(=O)c2ccc(C[C@@H]3CC[C@H]([C@H](O)c4ccccc4)N3)cc2)CC1 (stereo partly shown) [Example 462]
9,10 to 99.9 nM,Cc1c(CNC(=O)C(C)N2CCN(C(=O)c3ccc(C[C@@H]4CC[C@H]([C@H](O)c5ccccc5)N4)cc3)CC2)cnn1C (stereo partly shown) [Example 464]

row,Compound,EC50
1,CC(C(=O)N1[C@H]2CC[C@@H]1CC2)N1CCN(C(=O)c2ccc(C[C@@H]3CC[C@H]([C@H](O)c4ccccc4)N3)cc2)CC1 (stereo partly shown) [Example 501],100 to 999 nM

# Same assay, conditions: Table 11; cAMP, CHO cells; read-out: Human β3 agonist functional activity
row,EC50,Compound
1,1 to 9.9 nM,O=C(c1ccc(C[C@@H]2CC[C@H]([C@H](O)c3ccccc3)N2)cc1)N1CCCN(c2nccn3ccnc23)CC1 [Example 552]
2,10 to 99.9 nM,C[C@H]1CN(C(=O)c2ccc(C[C@@H]3CC[C@H]([C@H](O)c4ccccc4)N3)cc2)CCN1Cc1ccccn1 [Example 528]
3,100 to 999 nM,O=C(c1ccc(C[C@@H]2CC[C@H]([C@H](O)c3ccccc3)N2)cc1)N1CCn2cnnc2C1 [Example 548]

# Same assay, conditions: Table 12; human β3 functional activity given as ranges; read-out: Human β3 agonist functional activity
row,EC50,Compound
1,1 to 9.9 nM,"O=C(c1ccc(CC2CCC(C(O)c3ccccc3)N2)cc1)N1CCN(C2CCc3cccnc32)CC1 (single isomer, unassigned) [Example 597]"
2,1 to 9.9 nM,"O=C1OCCC1N1CCN(C(=O)c2ccc(CC3CCC(C(O)c4ccccc4)N3)cc2)CC1 (single isomer, unassigned) [Example 603]"
3,100 to 999 nM,"O=C(c1ccc(CC2CCC(C(O)c3ccccc3)N2)cc1)N1CCN(C2CCN(C3CC3)C2=O)CC1 (single isomer, unassigned) [Example 607]"
4,10 to 99.9 nM,"O=C(c1ccc(CC2CCC(C(O)c3ccccc3)N2)cc1)N1CCN(C(c2ccccn2)C2CC2)CC1 (single isomer, unassigned) [Example 589]"
5,1 to 9.9 nM,"CC(C)(C)C1CC2(CCN(C(=O)c3ccc(CC4CCC(C(O)c5ccccc5)N4)cc3)CC2)C(=O)O1 (single isomer, unassigned) [Example 569]"
6,1 to 9.9 nM,"CC(c1nccs1)N1CCN(C(=O)c2ccc(CC3CCC(C(O)c4ccccc4)N3)cc2)CC1 (single isomer, unassigned) [Example 581]"
7,1 to 9.9 nM,"CC(c1ccn(C)n1)N1CCN(C(=O)c2ccc(CC3CCC(C(O)c4ccccc4)N3)cc2)CC1 (single isomer, unassigned) [Example 577]"
8,10 to 99.9 nM,"CC(C)C1CC2(CCN(C(=O)c3ccc(CC4CCC(C(O)c5ccccc5)N4)cc3)CC2)C(=O)O1 (single isomer, unassigned) [Example 568]"

# Same assay, conditions: given as a range; cAMP, CHO cells; read-out: human β3 functional activity
row,Compound,EC50
1,"O=C(c1ccc(C[C@@H]2CC[C@H]([C@H](O)c3ccccc3)N2)cc1)N1C2CCC1C1CCC2N1Cc1ccccn1 [Example 524, (R)-phenyl[(2R,5S)-5-(4-{[10-(pyridin-2-ylmethyl)-9,10-diazatricyclo[4.2.1.1^2,5]dec-9-yl]carbonyl}benzyl)pyrrolidin-2-yl]methanol]",10 to 99.9 nM
